Experimental data as given in US8541670B2, “Compositions and methods for inhibiting tumor cell growth” (priority 2007, dated 2013).
pIC50: −log10 of the molar value. Several values for one entry are separate records, joined by “and”; a condition that tells them apart may be missing. Equal entries are not always repeated. Where no end group is shown, it is not given here. red fluorescent dye = not defined here

Assays:
TrkB = TrkB (Homo sapiens, UniProt Q16620); assay: Cell-based kinase assay, phosphorylation of intracellular substrate (Tyr-783 PLC)
Method: As a specific substrate, the phosphorylation level of GSK-3[…] at Ser-9 was also evaluated. […] The decrease was specific to the AKT phosphorylation site on GSK-3[…] at Ser-9, since a change in the phosphorylation level of GSK-3[…] at Tyr-216 or GSK-3[…] at Tyr-279 was not observed. Moreover, the in vivo reduction of the phosphorylation of AKT substrates was more obvious at the injection site, since a significant change in the phosphorylation of AKT substrates in the frontal cortex or cerebellum between the two hemispheres was not observed. […] To test the specificity/selectivity of ZaTa as the inhibitor of AKT1 versus the other major kinases, a series of in vitro kinase assays was performed at IC50 for AKT1 and at ten times higher concentrations. […]
Phosphorylation sites for kinases analyzed herein included Ser-235/236 S6 (a substrate for p70S6K), Tyr-207 CRKL (a substrate for Abl; Zipfel, et al. (2004) supra), Ser-241 PDK1 (a substrate for PI3K), Tyr-1022/1023 JAK1 (a substrate for JAK3; Wang, et al. (2003) supra), Ser-421 Huntingtin (a substrate for SGK; Rangone, et al. (2004) supra), Tyr-783 PLC (a substrate for TrkB; Middlemas, et al. (1994) supra), and Ser-338 cRaf (a substrate for PAK3; King, et al. (1998) supra).

[1] = mouse, in vivo
PAK3 = PAK3 (Homo sapiens, UniProt O75914); assay: In vitro kinase assay PAK3; assay type: biochemical; details: ten times higher concentration than 0.1 μM
Method: (§1) As a specific substrate, the phosphorylation level of GSK-3[…] at Ser-9 was also evaluated. […] The decrease was specific to the AKT phosphorylation site on GSK-3[…] at Ser-9, since a change in the phosphorylation level of GSK-3[…] at Tyr-216 or GSK-3[…] at Tyr-279 was not observed. Moreover, the in vivo reduction of the phosphorylation of AKT substrates was more obvious at the injection site, since a significant change in the phosphorylation of AKT substrates in the frontal cortex or cerebellum between the two hemispheres was not observed. […] To test the specificity/selectivity of ZaTa as the inhibitor of AKT1 versus the other major kinases, a series of in vitro kinase assays was performed at IC50 for AKT1 and at ten times higher concentrations. A panel of the following 32 kinases was first tested in vitro using the active form of each kinase and a specific substrate: AKT2, AKT3, PKA, PKC[…], PKC, PI3K[…], PI3K[…], PI3K, SGK, PAK2, PAK3, SAPK2/p38, Abl, CaMKII, CDK1/cyclinB, CDK5/p35, CK1, CK2, CSK, GSK3[…], GSK3[…], JNK1[…]1, MAPK1, p70S6K, PDGFR[…], PDGFR[…], PDK1, PKG1[…], TrkB, JAK2, JAK3, and Syk. […] However, at ten times higher concentration, ZaTa inhibited AKT2 (63%), PI3K[…] (72%), p70S6K (64%), SGK (73%), PAK3 (83%), JAK3 (79%), TrkB (84%), and Abl (42%). […]

p70S6K = target: T1, p70S6K (Homo sapiens, UniProt P23443); assay: In vitro kinase assay p70S6K; assay type: biochemical; details: ten times higher concentration than 0.1 μM
T1 construct: endogenous in cells
Method: as §1

N2a cells = assay: Trypan blue staining, live and dead cell count; assay type: cell-based
Excerpt: Therefore, in addition to capturing live images, cells were stained with trypan blue at different time intervals following treatment with ZaTa and counted by a light microscope using a hemocytometer.

AKT2 = AKT2 (Homo sapiens, UniProt P31751); assay: In vitro kinase assay AKT2; assay type: biochemical; details: ten times higher concentration than 0.1 μM
Method: as §1

AKT1 = target: T2, AKT1 (Homo sapiens, UniProt P31749); assay: AKT1 radioactive in vitro kinase assay (32P incorporation into Ser-21 GSK-3 substrate peptide); assay type: biochemical
T2 construct: purchased Upstate Biotechnology
Method: AKT1 catalytic activity was determined by measuring the incorporation of −^32P into Ser-21 glycogen synthase kinase 3[…] (GSK-3[…]) substrate peptide. Histogram bars represent the number of −^32P counts per minute (CPM). Reactions were carried out in the presence of different concentrations of the ZaTa peptide (SEQ ID NO:60), as well as a control peptide (SEQ ID NO:59) which shares 11 out of 17 amino acids in common with the N-terminus of the ZaTa peptide.
Of particular interest with regard to inhibitory activity toward AKT was peptide […](SEQ ID NO:60) which flanked the Thr-197 phosphorylation site of PKAc. […] Furthermore, the inhibitory effect of ZaTa peptide was compared with an adjacent peptide ([…] SEQ ID NO:59), a peptide that overlaps with the 11 N-terminal amino acid residues of the ZaTa peptide and carries the Thr-197 phosphorylation site. In this assay, the level of incorporation of −^32 P into Ser-21 GSK-3[…] substrate peptide was used as the measure of AKT1 in vitro catalytic activity.
For non-radioactive kinase assays, typically 25 ng of active AKT1 or PKAc (Upstate Biotechnology) was used in a kinase assay reaction buffer (20 mM MOPS, pH 7.2, 25 mM […]-glycerophosphate, 5 mM EGTA, 1 mM Na3VO4, 1 mM dithiothreitol, 75 mM MgCl2, and 0.5 mM ATP) in the presence of either 1 μL of Ser-9 GSK-3 GST fusion protein (Cell Signaling), or recombinant DARPP-32 (10 μg). For the radioactive kinase assays, typically 25 ng of kinase was added to the kinase assays reaction buffer (20 mM MOPS, pH 7.2, 25 mM […]-glycerophosphate, 5 mM EGTA, 1 mM Na3VO4, 1 mM dithiothreitol) containing 30 μM of dephosphorylated Ser-21 GSK-3 substrate peptide (Upstate Biotechnology) in the presence of different concentrations of inhibitor. Reactions were initiated by adding [−^32P] ATP (10 μCi/reaction) which was diluted in the reaction buffer, plus 500 μM cold ATP and 75 mM MgCl2. Kinase reactions were incubated 30° C. for 10-20 minutes. A 5 μL aliquot of the reaction was transferred to phosphocellulose paper, washed for 30 minutes with dH2O, and CPM of samples read in scintillation counter.

T2 sequence (P31749 whole entry): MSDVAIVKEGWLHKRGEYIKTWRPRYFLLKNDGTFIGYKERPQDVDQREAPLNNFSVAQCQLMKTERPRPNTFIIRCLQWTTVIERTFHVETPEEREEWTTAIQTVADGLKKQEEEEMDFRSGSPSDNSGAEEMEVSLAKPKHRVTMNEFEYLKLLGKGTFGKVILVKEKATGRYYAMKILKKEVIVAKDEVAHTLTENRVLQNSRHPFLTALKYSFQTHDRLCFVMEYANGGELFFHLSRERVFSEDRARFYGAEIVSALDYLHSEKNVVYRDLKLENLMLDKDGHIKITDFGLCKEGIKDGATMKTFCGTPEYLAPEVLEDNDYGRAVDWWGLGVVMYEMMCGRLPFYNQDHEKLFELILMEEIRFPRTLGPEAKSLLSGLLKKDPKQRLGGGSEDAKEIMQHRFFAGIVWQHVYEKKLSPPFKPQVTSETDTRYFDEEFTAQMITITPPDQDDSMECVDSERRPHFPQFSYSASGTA
T1 sequence (P23443 whole entry): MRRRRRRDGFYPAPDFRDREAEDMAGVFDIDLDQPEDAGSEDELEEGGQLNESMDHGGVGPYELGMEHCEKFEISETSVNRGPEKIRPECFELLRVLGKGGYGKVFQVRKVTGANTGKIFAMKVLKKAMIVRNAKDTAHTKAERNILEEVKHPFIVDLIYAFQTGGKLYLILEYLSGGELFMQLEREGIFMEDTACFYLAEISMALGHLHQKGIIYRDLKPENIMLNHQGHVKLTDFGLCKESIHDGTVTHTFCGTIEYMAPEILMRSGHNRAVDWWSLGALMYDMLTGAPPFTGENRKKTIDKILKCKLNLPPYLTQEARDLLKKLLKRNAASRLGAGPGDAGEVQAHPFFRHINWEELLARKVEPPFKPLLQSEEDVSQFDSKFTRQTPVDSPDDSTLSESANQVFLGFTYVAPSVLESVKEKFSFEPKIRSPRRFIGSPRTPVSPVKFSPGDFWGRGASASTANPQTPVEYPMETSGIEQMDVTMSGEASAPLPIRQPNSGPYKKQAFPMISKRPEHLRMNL
Chain of PAK3 (O75914 whole entry, species assumed): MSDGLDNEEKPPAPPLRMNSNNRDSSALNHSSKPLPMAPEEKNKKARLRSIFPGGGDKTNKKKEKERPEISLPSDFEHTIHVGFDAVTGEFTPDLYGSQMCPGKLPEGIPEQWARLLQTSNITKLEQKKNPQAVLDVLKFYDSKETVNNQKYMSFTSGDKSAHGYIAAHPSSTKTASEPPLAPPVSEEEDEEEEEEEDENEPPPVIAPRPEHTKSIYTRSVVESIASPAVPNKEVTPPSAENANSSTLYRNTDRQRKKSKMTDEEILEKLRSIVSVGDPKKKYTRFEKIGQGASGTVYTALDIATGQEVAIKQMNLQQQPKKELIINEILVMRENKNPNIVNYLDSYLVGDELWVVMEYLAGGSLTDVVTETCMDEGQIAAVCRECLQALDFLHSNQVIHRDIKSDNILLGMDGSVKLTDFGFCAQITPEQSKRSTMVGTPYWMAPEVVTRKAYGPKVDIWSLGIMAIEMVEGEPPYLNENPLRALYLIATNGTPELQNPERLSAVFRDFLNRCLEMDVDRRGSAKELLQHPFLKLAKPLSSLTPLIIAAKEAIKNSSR
Chain of AKT2 (P31751 whole entry, species assumed): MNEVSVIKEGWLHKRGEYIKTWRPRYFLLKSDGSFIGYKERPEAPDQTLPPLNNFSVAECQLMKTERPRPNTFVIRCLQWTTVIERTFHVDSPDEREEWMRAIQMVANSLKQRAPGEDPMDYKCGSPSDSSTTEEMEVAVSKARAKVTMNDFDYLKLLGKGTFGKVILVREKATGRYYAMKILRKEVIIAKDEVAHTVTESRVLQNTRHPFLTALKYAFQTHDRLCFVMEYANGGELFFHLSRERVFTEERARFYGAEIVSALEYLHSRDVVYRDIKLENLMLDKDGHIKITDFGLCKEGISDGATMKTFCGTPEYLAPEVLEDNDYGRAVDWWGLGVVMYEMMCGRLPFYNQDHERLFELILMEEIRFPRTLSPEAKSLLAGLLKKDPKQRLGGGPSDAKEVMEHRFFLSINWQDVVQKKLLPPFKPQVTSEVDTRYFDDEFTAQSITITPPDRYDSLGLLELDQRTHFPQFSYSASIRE

labeled ZaTa: ZaTa peptide labeled with a red fluorescent dye at its N-terminus ({red fluorescent dye}-AKRVKGRTWTLCGTPEY; reading uncertain)
inhibition of TrkB in cells (TrkB): did not cause inhibition

AKRVKGRTWTLCGTPEY [ZaTa]
distribution and absorption throughout brain tissue [1]: efficient distribution and absorption
inhibition of PAK3 (PAK3): 83%
inhibition of p70S6K (p70S6K): 64%
increase in the number of dead cells (N2a cells; counted at time points from 12 to 72 hours): not seen
number of live cells, trypan blue (N2a cells; different time intervals): dose-dependent decrease
inhibition of AKT2 (AKT2): 63%
pIC50 (AKT1; 32P incorporation into Ser-21 GSK-3 substrate peptide, read-out: IC-50, AKT1 catalytic activity in vitro): ~7.00 and 7.00
IC-50 of the ZaTa peptide (in words) (AKT1; FIG. 1 legend): within a nanomolar range
whether peptide is a substrate for AKT (AKT1; control kinase reactions with peptide and AKT only): not a substrate for AKT
